Test results taken from patent US20230250183A1, “POLYPEPTIDE THAT SPECIFICALLY BINDING TO CD123 PROTEIN, POLYPEPTIDE COMPLEXE, CO-DELIVERY SYSTEM AND PREPARATION METHOD AND USE THEREOF” (Institute of Basic Medical Sciences Chinese Academy of …, priority 2020, published 2023).
Where a name gives a salt, the structure may show the parent alone. No end group written: not given here.

Assays:
MOLM-13 cells [1] = assay: Effect of co-delivery system on the activity of MOLM-13 cells (CCK-8); assay type: cell-based; details: human, 24 h
Method: The following experimental groups were set and stock solutions for experiment were configured, including:
1) Polypeptide PO-6 group (PO-6): polypeptide stock solution obtained in Example 1 (polypeptide concentration is 1 mM);
2) Doxorubicin (Dox) group: doxorubicin hydrochloride was dissolved in sterile water to obtain 1 mg/mL (1.7 mM) Dox stock solution;
3) High polymer group (mPEG2000-PCL2000): 15 mg mPEG2000-PCL2000 powder was weighted and dissolved with 1 mL PBS solution to obtain 15 mg/mL (3.3 mM) mPEG2000-PCL2000 stock solution.
4) Polypeptide PO-6 and Dox combination group (PO-6+Dox): the polypeptide stock solution in experimental group 1) and the Dox stock solution in experimental group 2) were diluted with PBS solution respectively, then mixed to obtain a mixed solution. The concentration of polypeptide was 36.2 μM, the concentration of Dox was 17.24 μM, and the weight ratio of polypeptide PO-6 to Dox was 10:1 in the mixed solution; […]
Experimental procedure: MOLM-13 cells were inoculated in 96-well U-shaped plates with 8×10^4 cells per well. […] The absorbance values (OD value) at wavelengths of 450 nm and 630 nm were measured by a microplate reader, and the percent viability of cells was calculated according to Formula 1, and the control group was the cells without drug treatment, denoted as Con; […]

HUVEC cells = assay: Effect of co-delivery system on the activity of HUVEC cells (CCK-8); assay type: cell-based, human; details: Dox 0.1 μM, polypeptide 2.1 μM, 24 hours, CCK8
Method: (§1) HUVEC cells were inoculated in 96-well plates with 1×10^4 cells per well, and grouping was the same as experiment 8. Corresponding drug stock solutions were added into each well in each experimental group to make the final Dox concentration of each well is 0.1 μM and the final corresponding polypeptide concentration of each well is 2.1 μM. Incubated at 37° C. in 5% CO2 incubator for 24 hours, then washed with PBS, and 110 μL CCK8 diluent (including 100 μL RPMI 1640 medium+10 μL CCK-8) was added in each well, followed by incubation for 2 h. The absorbance values (OD value) at wavelengths of 450 nm and 630 nm were measured by a microplate reader, and the percent viability of cells was calculated according to Formula 1, and the control group was the cells without drug treatment, denoted as Con.

[2] = as above; assay type: cell-based, human; details: human, Dox 0.1 μM, polypeptide 2.1 μM, CCK8, read-out: percent viability of cells
Method: as §1

[3] = tested on: MOLM-13 cells (CD123-positive); assay: Polypeptide binding to MOLM-13 cells by flow cytometry; details: FITC-labeled polypeptide 0.5, 1, 5 and 10 μM, 37° C., 0.5 h
Method: (§2) MOLM-13 and K562 cells were inoculated into 48-well plates with 2×10^5 cells per well, respectively, and FITC-labeled polypeptides listed in Table 1 were added to make the final concentrations of polypeptides were 0.5 μM, 1 μM, 5 μM and 10 μM, respectively. Incubate at 37° C. in 5% CO2 incubator for 0.5 h. After incubation, washed once with PBS solution, centrifuged at 1500 rpm for 5 min, and the supernatant was discarded, and 100 μL PBS solution was added to each well to re-suspend the cells, and 300 mesh sieve was used for filtration. Flow cytometry was used for determination of the mean fluorescence intensity (MFI) of MOLM-13 and K562 cells, and MFI was used as indication of the binding quantity of polypeptide on cells. FIGS. 2 and 3 show the quantity of polypeptides bound to cells.

[4] = tested on: K562 cells (CD123-negative); assay: Polypeptide binding to K562 cells by flow cytometry; details: FITC-labeled polypeptide 0.5, 1, 5 and 10 μM, 37° C., 0.5 h
Method: as §2

MOLM-13 cells [5] = assay: Binding of polypeptide, polypeptide complex to MOLM-13 observed by laser scanning confocal microscope; details: FITC-labeled, polypeptide 0.5 μM, 0.5 h
Method: MOLM-13 cells (2×10^5 cells per well) were incubated with FITC-labeled polypeptides (taking PO-6, and PO-6N as examples) and polypeptide complexes (see Table 2) at 37° C. for 30 min, and the final concentration of polypeptides was 0.5 μM (the final concentration of polypeptides in the cultivation system of polypeptide complexes was also 0.5 μM). After incubation, the cells were collected and washed twice with PBS solution, centrifuged at 1500 rpm for 5 min, and the supernatant was discarded. 400 μL paraformaldehyde in PBS aqueous solution (containing 4 wt % paraformaldehyde) was added to each well, and they were placed in dark at room temperature for 30 min, so that the cells were fixed by paraformaldehyde. washed once with PBS solution, centrifugated at 2000 rpm for 5 min, and the cells were dropped on the glass slide to dry naturally, and then was sealed with a mounting medium containing DAPI (4′, 6-diamidino-2-phenylindole). Laser scanning confocal microscope (Ex=488 nm (FITC); Ex=405 nm (DAPI)) was used for observation and photographing. MOLM-13 cells without any treatment were taken as the control group, i.e., Con. Photos of polypeptide PO-6 and PO-6N and corresponding polypeptide complexes (taking C-1 and C-1′ as examples) are shown in FIG. 9 and FIG. 10. […]

COc1cccc2c1C(=O)c1c(O)c3c(c(O)c1C2=O)C[C@@](O)(C(=O)CO)C[C@@H]3O[C@H]1C[C@H](N)[C@H](O)[C@H](C)O1 [Dox, doxorubicin hydrochloride, reference compound]
percent viability of cells (MOLM-13 cells [1]; 0.1 μM): 57%
percent viability of cells (HUVEC cells): about 50%

DDDYDTRAQGTDIGCDFRRISDDD [PO-6]
percent viability of cells (MOLM-13 cells [1]; 0.21 μM): 98%
viability at 24 h, 2.1 µM [2]: > 90%

GGDDDYDTRAQGTDIGNDFRRISDDD [PO-6N]
binding quantity to MOLM-13 cells (mean fluorescence intensity of FITC) [3]: can bind
binding quantity to K562 cells (mean fluorescence intensity of FITC) [4]: very weak
green fluorescence on the cell surface compared with Con (MOLM-13 cells [5]): obvious green fluorescence
